Measurements published in the supplement of paper PMC11061612.

Legend:
[1] = tested on: SW620 (Colorectal Carcinoma); assay: combination Emax (second highest fraction inhibited in the dose matrix, 72 h); higher = more inhibition; extreme values may be limits of the assay
Method in brief: (§1)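 Cell lines in DMEM/F12 or RPMI with 10% FBS were plated in 1536-well plates, held 24 hours at 37°C, 5% CO2, then given two-drug dose matrices for 72 hours (DMSO typically 0.2%). Viability was read by CellTiter-Glo 2.0 luminescence and scaled as inhibition from 0 (vehicle wells) to 1 (blank wells). Combination Emax is the second-highest inhibition in the matrix; Bliss excess is observed combination effect minus expected EA + EB − EA·EB, EA and EB being single-agent effects.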

[2] = tested on: NCI-H1703 (Squamous Cell Lung Carcinoma); assay: as above
Method in brief: as §1

[3] = tested on: EB2 (Burkitt's Lymphoma); assay: as above
Method in brief: as §1

[4] = tested on: LU-165 (Small Cell Lung Carcinoma); assay: as above
Method in brief: as §1

[5] = tested on: 22RV1 (Prostate Carcinoma); assay: as above
Method in brief: as §1

[6] = tested on: JHU-022 (Oral Cavity Carcinoma); assay: as above
Method in brief: as §1

[7] = tested on: IM-9 (Non-Cancerous); assay: as above
Method in brief: as §1

[8] = tested on: LS-411N (Colorectal Carcinoma); assay: Bliss excess, mean over the matrix (fraction); higher = more synergy
Method in brief: as §1

[9] = tested on: KP-N-YN (Neuroblastoma); assay: as above
Method in brief: as §1

[10] = tested on: NB13 (Neuroblastoma); assay: as above
Method in brief: as §1

[11] = tested on: OACp4C (Esophageal Adenocarcinoma); assay: as above
Method in brief: as §1

[12] = tested on: GA-10 (Burkitt's Lymphoma); assay: as above
Method in brief: as §1

[13] = tested on: CA46 (Burkitt's Lymphoma); assay: as above
Method in brief: as §1

[14] = tested on: AU565 (Breast Carcinoma); assay: as above
Method in brief: as §1

[15] = tested on: ESO26 (Esophageal Adenocarcinoma); assay: as above
Method in brief: as §1

[16] = tested on: RH-41 (Rhabdomyosarcoma); assay: as above
Method in brief: as §1

[17] = tested on: KYSE-140 (Esophageal Squamous Cell Carcinoma); assay: as above
Method in brief: as §1

[18] = tested on: A101D (Melanoma); assay: as above
Method in brief: as §1

[19] = tested on: huH-1 (Hepatocellular Carcinoma); assay: as above
Method in brief: as §1

[20] = tested on: NCI-H2228 (Lung Adenocarcinoma); assay: as above
Method in brief: as §1
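For Bliss excess, mean over the matrix in this document: after 72 h of two-drug dosing.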

`CN(CCO)CC[C@H](CSc1ccccc1)Nc1ccc(S(=O)(=O)NC(=O)c2ccc(N3CCC([C@@H](O)c4ccccc4-c4ccc(Cl)cc4)CC3)cc2)cc1S(=O)(=O)C(F)(F)F` [AZD4320] + C1CN(CCC1(C(=O)N[C@@H](CCO)C2=CC=C(C=C2)Cl)N)C3=NC=NC4=C3C=CN4 [Capivasertib] (first compound max 1 µM, 7x7, partner max 3 µM) was tested, and the “combination Emax” value [1] was 0.137, the “combination Emax” value [2] was 0.402 and the “combination Emax” value [3] was 0.534. The “combination Emax” value [4] was 0.581, the “combination Emax” value [5] was 0.471 and the “combination Emax” value [6] was 0.308. The “combination Emax” value [7] was 0.586, the Bliss excess [8] was -0.048 and the Bliss excess [9] was -0.0237. It also gave a Bliss excess [10] of 0.0174, a Bliss excess [11] of 0.0209 and a Bliss excess [12] of -0.0283. It also gave a Bliss excess [13] of -0.0496, a Bliss excess [14] of 0.0161 and a Bliss excess [15] of -0.0271. The Bliss excess [16] was -0.0159, the Bliss excess [17] was -0.0432 and the Bliss excess [18] was -0.0695. The Bliss excess [19] was -0.0215 and the Bliss excess [20] was -0.0392.
With `CN(CCO)CC[C@H](CSc1ccccc1)Nc1ccc(S(=O)(=O)NC(=O)c2ccc(N3CCC([C@@H](O)c4ccccc4-c4ccc(Cl)cc4)CC3)cc2)cc1S(=O)(=O)C(F)(F)F` [AZD4320] + C=CCn1c(=O)c2cnc(Nc3ccc(N4CCN(C)CC4)cc3)nc2n1-c1cccc(C(C)(C)O)n1 [AZD1775] (first compound max 1 µM, partner max 1 µM) the “combination Emax” value [1] was 0.931, the “combination Emax” value [2] was 0.972 and the “combination Emax” value [3] was 0.866. For the same compound, the “combination Emax” value [4] was 0.681, the “combination Emax” value [5] was 0.321 and the “combination Emax” value [6] was 0.579. For the same compound, the “combination Emax” value [7] was 1, the Bliss excess [8] was 0.0549 and the Bliss excess [9] was 0.0631. For the same compound, the Bliss excess [10] was 0.0475, the Bliss excess [11] was -0.0071 and the Bliss excess [12] was -0.0167. For the same compound, the Bliss excess [13] was 0.0175, the Bliss excess [14] was 0.0571 and the Bliss excess [15] was -0.0318. The Bliss excess [16] was 0.0873, the Bliss excess [17] was -0.0161 and the Bliss excess [18] was 0.14. It also gave a Bliss excess [19] of 0.01 and a Bliss excess [20] of -0.0344.
For `CN(CCO)CC[C@H](CSc1ccccc1)Nc1ccc(S(=O)(=O)NC(=O)c2ccc(N3CCC([C@@H](O)c4ccccc4-c4ccc(Cl)cc4)CC3)cc2)cc1S(=O)(=O)C(F)(F)F` [AZD4320] + CC(=O)O[C@H]1C(=O)[C@@]2(C)[C@H]([C@H](OC(=O)c3ccccc3)[C@]3(O)C[C@H](OC(=O)[C@H](O)[C@@H](NC(=O)c4ccccc4)c4ccccc4)C(C)=C1C3(C)C)[C@]1(OC(C)=O)CO[C@@H]1C[C@@H]2O [Paclitaxel] (first compound max 1 µM, 7x7, partner max 3 µM), the “combination Emax” value [1] was 1, the “combination Emax” value [2] was 0.976 and the “combination Emax” value [3] was 0.802. For the same compound, the “combination Emax” value [4] was 0.88, the “combination Emax” value [5] was 0.845 and the “combination Emax” value [6] was 0.846. For the same compound, the “combination Emax” value [7] was 1 and the Bliss excess [9] was 0.0826.
In the case of `CN(CCO)CC[C@H](CSc1ccccc1)Nc1ccc(S(=O)(=O)NC(=O)c2ccc(N3CCC([C@@H](O)c4ccccc4-c4ccc(Cl)cc4)CC3)cc2)cc1S(=O)(=O)C(F)(F)F` [AZD4320] + CCN(CCO)CCCOc1ccc2c(Nc3cc(CC(=O)Nc4cccc(F)c4)[nH]n3)ncnc2c1 [AZD2811] (first compound max 1 µM, 7x7, partner max 1 µM), the “combination Emax” value [1] is reported as 0.946, the “combination Emax” value [2] is reported as 0.473 and the “combination Emax” value [3] is reported as 0.338. The “combination Emax” value [4] was 0.486, the “combination Emax” value [5] was 0.259 and the “combination Emax” value [6] was 0.315. The “combination Emax” value [7] was 1, the Bliss excess [8] was 0.0119 and the Bliss excess [9] was 0.0516. It also gave a Bliss excess [10] of 0.0975, a Bliss excess [11] of 0.0011 and a Bliss excess [12] of -0.0203. The Bliss excess [13] was -0.0191, the Bliss excess [14] was 0.0712 and the Bliss excess [15] was -0.0266. For the same compound, the Bliss excess [16] was 0.0867, the Bliss excess [17] was 0.0082 and the Bliss excess [18] was 0.0418. It also gave a Bliss excess [19] of 0.0161 and a Bliss excess [20] of -0.0025.
For `CN(CCO)CC[C@H](CSc1ccccc1)Nc1ccc(S(=O)(=O)NC(=O)c2ccc(N3CCC([C@@H](O)c4ccccc4-c4ccc(Cl)cc4)CC3)cc2)cc1S(=O)(=O)C(F)(F)F` [AZD4320] + C[C@@H]1COCCN1C2=NC(=NC(=C2)C3(CC3)[S@](=N)(=O)C)C4=C5C=CNC5=NC=C4 [AZD6738] (first compound max 1 µM, 7x7, partner max 10 µM), the “combination Emax” value [1] was 0.793, the “combination Emax” value [2] was 0.892 and the “combination Emax” value [3] was 0.835. The “combination Emax” value [4] was 0.776, the “combination Emax” value [5] was 0.624 and the “combination Emax” value [6] was 0.753. For the same compound, the “combination Emax” value [7] was 1, the Bliss excess [8] was 0.0135 and the Bliss excess [9] was -0.019. It also gave a Bliss excess [10] of -0.0167, a Bliss excess [11] of -0.036 and a Bliss excess [12] of -0.0075. It also gave a Bliss excess [13] of -0.0275, a Bliss excess [14] of 0.0419 and a Bliss excess [15] of -0.0439. It also gave a Bliss excess [16] of -0.0086, a Bliss excess [17] of -0.0299 and a Bliss excess [18] of 0.046. The Bliss excess [19] was 0.0215 and the Bliss excess [20] was -0.0628.
